These results are taken from US11046713B2, “Androgen receptor modulating compounds” (ORION CORPORATION, priority 2009, dated 2021).

The test system of one experiment is VCaP prostate cancer cell line. Put plainly: Inhibition of mibolerone-induced VCaP cell proliferation (WST-1). It counts as cell-based. As to conditions: Homo sapiens, VCaP, mibolerone-induced (usually 0.1 nM), 4-5 days. The procedure:
The IC50 value of the test compound for inhibition of mibolerone-induced VCaP cell proliferation was measured.
Cell Proliferation Assays
The ability of test compounds to inhibit prostate cancer cell growth was studied by measuring inhibition of cell proliferation using androgen-sensitive VCaP prostate cancer cell line. […] Cell proliferation was measured using WST-1 Cell Proliferation Assay (Roche).
(Formazan colour is commonly taken as a measure of viable cells.)
One may read the IC50 as the concentration that gives 50% inhibition. `Cc1nc(-c2cc(C(=O)N[C@@H](C)Cn3ccc(-c4ccc(C#N)c(Cl)c4)n3)n[nH]2)cs1` [Example 94, (S)—N-(1-(3-(3-chloro-4-cyanophenyl)-1H-pyrazol-1-yl)propan-2-yl)-5-(2-methylthiazol-4-yl)-1H-pyrazole-3-carboxamide]: 0.79 µM corresponded to half-maximal inhibition (IC50).

Molecule `Cc1cc(-c2ccn(C[C@H](C)NC(=O)c3cc(-c4ccco4)n[nH]3)n2)ccc1C#N` [Example 32, (S)—N-(1-(3-(4-cyano-3-methylphenyl)-1H-pyrazol-1-yl)propan-2-yl)-3-(furan-2-yl)-1H-pyrazole-5-carboxamide] gave a 50% inhibitory concentration (IC50) of 0.56 µM.

In turn, `N#Cc1ccc(-c2ccn(CCNC(=O)c3cc(-c4cccnc4)n[nH]3)n2)cc1C#N` [Example 52, N-(2-(3-(3,4-dicyanophenyl)-1H-pyrazol-1-yl)ethyl)-3-(pyridin-3-yl)-1H-pyrazole-5-carboxamide] registered a half-inhibitory concentration (IC50) of 0.45 µM.

For the molecule `Cc1c(-c2ccn(C[C@H](C)NC(=O)c3csc(C(C)O)n3)n2)ccc(C#N)c1Cl` (stereo partly drawn) [Example 186, N—((S)-1-(3-(3-chloro-4-cyano-2-methylphenyl)-1H-pyrazol-1-yl)propan-2-yl)-2-(1-hydroxyethyl)thiazole-4-carboxamide], it took 0.31 µM to reach half-maximal inhibition (IC50).

`O=C(NCCc1ccc(-c2ccc(Cl)c(Cl)c2)o1)c1cc(C(=O)N2CCOCC2)n[nH]1` [Example 8, N-(2-(5-(3,4-dichlorophenyl)furan-2-yl)ethyl)-3-(morpholine-4-carbonyl)-1H-pyrazole-5-carboxamide] yielded an IC50 of 1.6 µM. This IC50 lies about 5.2-fold higher than the previous one.

Take `C[C@@H](Cn1ccc(-c2cc(F)c(C#N)c(Cl)c2)n1)NC(=O)c1cn2cccnc2n1` [Example 324, (S)—N-(1-(3-(3-chloro-4-cyano-5-fluorophenyl)-1H-pyrazol-1-yl)propan-2-yl)imidazo [1,2-a]pyrimidine-2-carboxamide]: inhibition was half-maximal at 1 µM (IC50). This IC50 lies about 1.6-fold lower than the previous one.

Regarding `Cc1noc(C(=O)N[C@@H](C)Cn2ccc(-c3ccc(C#N)c(Cl)c3)n2)n1` [Example 103, (S)—N-(1-(3-(3-chloro-4-cyanophenyl)-1H-pyrazol-1-yl)propan-2-yl)-3-methyl-1,2,4-oxadiazole-5-carboxamide], half-maximal inhibition (IC50) was put at 0.23 µM.

`C[C@@H](Cn1ccc(-c2ccc(C#N)c(Cl)c2)n1)NC(=O)c1csc(-c2cn[nH]c2)n1` [Example 206, (S)—N-(1-(3-(3-chloro-4-cyanophenyl)-1H-pyrazol-1-yl)propan-2-yl)-2-(1H-pyrazol-4-yl)thiazole-4-carboxamide] returned a concentration for half-maximal inhibition (IC50) of 0.49 µM. Against the preceding molecule, the IC50 is about 2.1-fold higher.

The molecule `C[C@H](CNC(=O)c1csc(CC#N)n1)n1ccc(-c2cc(F)c(C#N)c(F)c2)n1` [Example 222, (R)—N-(2-(3-(4-cyano-3,5-difluorophenyl)-1H-pyrazol-1-yl)propyl)-2-(cyanomethyl)thiazole-4-carboxamide] showed a concentration for half-maximal inhibition (IC50) of 0.25 µM. This IC50 is about 2-fold lower than that of the molecule before.

The molecule `C[C@H](Cn1ccc(-c2ccc(C#N)c(Cl)c2)n1)NC(=O)c1csc(N2CCOCC2)n1` [Example 132, (R)—N-(1-(3-(3-chloro-4-cyanophenyl)-1H-pyrazol-1-yl)propan-2-yl)-2-morpholinothiazole-4-carboxamide] showed an IC50 of 0.21 µM.

Take `CCc1noc(C(=O)N[C@@H](C)Cn2ccc(-c3ccc(C#N)c(Cl)c3)n2)n1` [Example 91, (S)—N-(1-(3-(3-chloro-4-cyanophenyl)-1H-pyrazol-1-yl)propan-2-yl)-3-ethyl-1,2,4-oxadiazole-5-carboxamide]: 0.33 µM corresponded to half-maximal inhibition (IC50).

`CC(O)c1cc(C(=O)N[C@@H](C)Cn2ccc(-c3ccc(C#N)c(Cl)c3)n2)no1` (stereo partly drawn) [Example 124, N—((S)-1-(3-(3-chloro-4-cyanophenyl)-1H-pyrazol-1-yl)propan-2-yl)-5-(1-hydroxyethyl)isoxazole-3-carboxamide] showed an IC50 of 0.43 µM.

The molecule `Cc1nc(C(=O)N[C@@H](C)Cn2ccc(-c3cc(F)c(C#N)c(Cl)c3)n2)c[nH]1` [Example 249, (S)—N-{1-[3-(3-Chloro-4-cyano-5-fluorophenyl)-1H-pyrazol-1-yl]propan-2-yl}-2-methyl-1H-imidazole-4-carboxamide] came in with a half-maximal inhibitory concentration (IC50) of 0.32 µM.

On to `Cc1cc(-c2ccn(CCNC(=O)c3cc(-c4cccnc4)n[nH]3)n2)ccc1C#N` [Example 53, N-(2-(3-(4-cyano-3-methylphenyl)-1H-pyrazol-1-yl)ethyl)-3-(pyridin-3-yl)-1H-pyrazole-5-carboxamide], for which the half-maximal inhibitory concentration (IC50) came to 0.5 µM. Compared with the last molecule, the IC50 is about 1.6-fold higher.

`C[C@@H](Cn1ccc(-c2ccc(C#N)c(Cl)c2)n1)NC(=O)c1[nH]nc2c1COCC2` [Example 338, (S)—N-(1-(3-(3-chloro-4-cyanophenyl)-1H-pyrazol-1-yl)propan-2-yl)-2,4,6,7-tetrahydropyrano [4,3-c]pyrazole-3-carboxamide] registered an IC50 of 0.34 µM.

Still in this experiment, the particulars now being: mibolerone-induced (usually 0.1 nM), 4-5 days.
For the molecule `Cc1nc(C(=O)N[C@@H](C)Cn2ccc(-c3ccc(C#N)c(Cl)c3)n2)c[nH]1` [Example 248, (S)—N-{1-[3-(3-Chloro-4-cyanophenyl)-1H-pyrazol-1-yl]propan-2-yl}-2-methyl-H-imidazole-4-carboxamide], it took 0.49 µM to reach half-maximal inhibition (IC50).
